The values that follow come from ChEMBL document CHEMBL4130419, “Novel chemotypes targeting tubulin at the colchicine binding site and unbiasing P-glycoprotein” (Eur J Med Chem, 2017).

SMILES strings stand for the structures.

As a reminder, the IC50 is the midpoint of a concentration-inhibition curve. For orientation: Papp A→B means how fast a substance crosses the layer from the apical side. Broadly, the Papp B→A is the apparent permeability from the basolateral to the apical side of a cell layer. For orientation: efflux ratio means the permeability from basolateral to apical divided by that in the opposite direction, in the common usage.

One data set concerns MCF7. The experiment in a line: Antiproliferative activity against human MCF7 cells after 72 hrs by MTT assay. The format is functional, cell-based. The settings on record: MCF7, 72 h. (In general: Formazan colour is commonly taken as a measure of viable cells.)
For the next data set, the system named is HepG2. As to the kind of experiment: Antiproliferative activity against human HepG2 cells after 72 hrs by MTT assay. The format is functional, cell-based. To be noted: HepG2, 72 h.
A further data set deals with HeLa. As to the kind of experiment: Antiproliferative activity against human HeLa cells after 72 hrs by MTT assay. In kind it is functional, cell-based.
In the next data set the test system is SH-SY5Y. As to the kind of experiment: Antiproliferative activity against human SH-SY5Y cells after 72 hrs by MTT assay. The format is functional, cell-based.
For another data set, the species on record is Sus scrofa. The experiment in a line: Inhibition of tubulin polymerization in porcine brain assessed as disruption of microtubule organization after 1 hr by fluorescence polarization assay. On the technique in general: In fluorescence polarisation assays a small probe gives low polarisation when free and higher when bound to something large.
The nature of data set [1]: Apparent permeability from apical to basolateral side in MDCK2-MDR1 cells at 75 uM after 2 hrs UV-visible spectroscopy. To be noted: dog, MDCK-MDR1. In kind it is ADME, cell-based, Canis lupus familiaris.
Data set [2] is described as follows: Apparent permeability from basolateral to apical side in MDCK2-MDR1 cells at 75 uM after 2 hrs UV-visible spectroscopy. The settings on record: dog, MDCK-MDR1. In kind it is ADME, cell-based, Canis lupus familiaris.
Data set [3] is described as follows: Efflux ratio of apparent permeability from basolateral to apical over apical to basolateral side in MDCK2-MDR1 cells at 75 uM after 2 hrs by UV-visible spectroscopy. In kind it is ADME, cell-based, Canis lupus familiaris. The settings on record: dog, MDCK-MDR1.

With `CCOC(=O)c1c(C)[nH]c(C)c1C(=O)CSC1=Nc2ccccc2C2CC=NN12` (stereo not drawn), the IC50 in the data set with MCF7 is 32 µM; in the data set on HepG2 it was 14.1 µM; in the data set on HeLa, 63.2 µM; with SH-SY5Y it was 3.7 µM. The inhibition result in the data set filed under Sus scrofa is “Dose-dependent effect”. Moreover, in data set [1], the Papp A→B at 2 h, 75 µM was found to be 76 ×10⁻⁶ cm/s. Besides, the Papp B→A at 2 h, 75 µM in data set [2] came out at 47 ×10⁻⁶ cm/s. For the same molecule, the efflux ratio at 2 h, 75 µM in data set [3] was 0.62.
